One data set concerns M. avium. In words: MIC, M. avium. It counts as cell-based. As to conditions: Mycobacterium avium; read-out: MIC M. avium. The method, then: (§1) Antimicrobial testing was carried out by the broth microdilution method in 96-well plate format following the Clinical and Laboratory Standards Institute (CLSI) guidelines and European Committee on Antimicrobial Susceptibility Testing (EUCAST) recommendations. Bacterial suspension of specific bacterial strain equivalent to 0.5 McFarland turbidity standard was diluted with cation-adjusted Mueller Hinton broth with TES (Thermo Fisher Diagnostic, Landsmeer, The Netherlands), to obtain a final inoculum of 10^5 CFU/mL. Compounds dissolved in DMSO and inoculum were mixed together and incubated for 18–20 h at 35 °C. Suspensions of Mycobacterium sp. were prepared into a tube of Middelbrook 7H9 broth supplemented with 5% OADC (Thermo Scientific, Trek Diagnostic Systems, West Sussex, UK) and incubated for at least 10 days. After incubation the minimal inhibitory concentration (MIC) values were determined by visual inspection as the lowest dilution of compounds showing no turbidity. Tetracycline was used as a positive control on every assay plate.

Another data set in a line: in vitro. The conditions noted are these: for Papp at 4 h: PAMPA. The procedure, abridged:
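Compounds measured by HPLC (isocratic, compound-specific methods) after 4-h incubation at 37 °C across a three-layer artificial membrane into pH 7.4 PBS acceptor. Permeability derived from donor and acceptor peak areas, using diluted starting donor solution as external standard.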
A general note: The PAMPA barrier holds no transporters, so it reflects passive diffusion.

The subject of a further data set is E. coli D22. Description: MIC broth microdilution, E. coli D22. It counts as cell-based. The conditions noted are these: Escherichia coli, D22; mutation in the lpxC gene that increases membrane permeability; read-out: MIC E. coli D22. As for the experimental part: as §1
The subject of another data set is MRSA (QA-11.6). Description: MIC broth microdilution, MRSA QA-11.6. Type of data set: cell-based, methicillin-resistant S. aureus. As to conditions: Staphylococcus aureus, resistant to cefoxitin, gentamicin, sulfamethoxazole, tetracycline, read-out: MIC MRSA (QA-11.6). The method, then:
as §1
In general terms: In broth dilution the organism is exposed to a series of concentrations in liquid medium.

In a further data set the test system is E. coli (QA-11.3). In words: MIC broth microdilution, E. coli QA-11.3. It counts as cell-based. The conditions noted are these: Escherichia coli, 20 h; read-out: MIC E. coli (QA-11.3). The method, then: as §1
In another data set the test system is S. pneumoniae (QA-10/02). Description: MIC broth microdilution, S. pneumoniae. It counts as cell-based. As to conditions: Streptococcus pneumoniae. The method, then:
as §1

In data set [1] the test system is S. agalactiae RDK 047 (QA-990/02). Description: MIC broth microdilution, S. agalactiae. It counts as cell-based. The conditions noted are these: Streptococcus agalactiae; read-out: MIC S. agalactiae RDK 047 (QA-990/02). As for the experimental part:
as §1

The subject of the next data set is M. smegmatis. In words: MIC, M. smegmatis. It counts as cell-based, Mycobacterium smegmatis. The conditions noted are these: Mycolicibacterium smegmatis; read-out: MIC M. smegmatis. The method, then:
as §1

A further data set addresses T1, E. coli DNA gyrase (Escherichia coli, UniProt P0AES4).
T1 construct: purchased Inspiralis (Norwich, UK)
In words: Gyrase Supercoiling High Throughput Plate assay, E. coli. It counts as biochemical. As to conditions: for LE DNA Gyrase E. coli: LE = (1.37/HA) × pIC50. The method, then:
(§2) A Gyrase Supercoiling High Throughput Plate assay kit, purchased from Inspiralis (Norwich. UK) was used to determine IC50 values of compounds on S. aureus and E. coli. […] Biotinylated oligonucleotide in wash buffer was immobilized onto the wells, and the excess oligonucleotide was washed off with wash buffer and ultrapure water. […] The reactions were stopped by adding the TF buffer (50 mM NaOAc (pH 4.7), 50 mM NaCl, and 50 mM MgCl2) to allow the triplex formation (biotin-oligonucleotide-plasmid) for additional 30 min. Afterward, the unbound plasmid was washed off using TF buffer, and the solution of Promega Diamond dye in T10 buffer (10 mM Tris-HCl (pH 8.0), 1 mM EDTA) was added. […] IC50 value represents the mean of two to four independent measurements.

For a further data set, the system named is MRSA (QA-11.7). Description: MIC broth microdilution, MRSA QA-11.7. As to conditions: Staphylococcus aureus, 20 h, read-out: MIC MRSA (QA-11.7). Type of data set: cell-based, methicillin-resistant S. aureus. The method, then:
as §1

Data set [2] has as its system C. jejuni RDK 135 (ATCC 33560). Description: MIC broth microdilution, C. jejuni. It counts as cell-based. As to conditions: Campylobacter jejuni, ATCC33560; read-out: MIC C. jejuni RDK 135 (ATCC 33560). The method, then: as §1
Data set [3] relates to P. aeruginosa RDK 184 (DSM 939). In words: MIC broth microdilution, P. aeruginosa. It counts as cell-based. The conditions noted are these: Pseudomonas aeruginosa, DSM939; read-out: MIC P. aeruginosa RDK 184 (DSM 939). As for the experimental part: as §1
The next data set has as its system MRSA. Description: MIC broth microdilution, MRSA. It counts as cell-based, methicillin-resistant S. aureus. As to conditions: Staphylococcus aureus, read-out: MIC MRSA. As for the experimental part:
as §1

The test system of data set [4] is E. faecalis DRK 057 (ATCC 29212). Description: MIC broth microdilution, E. faecalis. It counts as cell-based. The conditions noted are these: Enterococcus faecalis, ATCC29212; read-out: MIC E. faecalis DRK 057 (ATCC 29212). The method, then:
as §1

In the next data set the target is T2, S. aureus DNA gyrase (Staphylococcus aureus, UniProt P20831).
T2 construct: purchased Inspiralis (Norwich, UK)
In words: biochemical. Type of data set: biochemical. The conditions noted are these: for LE DNA Gyrase S. aureus: LE = (1.37/HA) × pIC50. The method, then: as §2

The nature of data set [5]: Equilibrium solubility at pH 6.8. As to conditions: for solubility thermodynamic at 24 h: phosphate buffered saline, 37 °C, pH 6.8, aqueous buffer, thermodynamic from solid. In outline: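 Concentrations in solution were read by compound-specific isocratic HPLC calibrated with 30–90 mg/L external standards, after 5 min homogenization and 24 h shaking at 1200 RPM, 37 °C.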

The subject of another data set is E. coli N43 (CGSC# 5583). Description: MIC broth microdilution, E. coli N43. As to conditions: Escherichia coli. Type of data set: cell-based. The procedure, abridged:
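MIC is the lowest compound dilution without visible turbidity. M. avium was tested in Middlebrook 7H9 with 5% OADC for ≥10 days; other strains at 10^5 CFU/mL final in cation-adjusted Mueller Hinton broth with TES, 18–20 h at 35 °C, following CLSI and EUCAST microdilution guidance.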

Data set [6] concerns S. alachua RDK 030c (QA-1482/04). Description: MIC broth microdilution, S. alachua. Type of data set: cell-based. As to conditions: Salmonella; read-out: MIC S. alachua RDK 030c (QA-1482/04). As for the experimental part:
as §1

Data set [7] relates to A. baumannii 8C6 (GES-14). In words: MIC broth microdilution, A. baumannii. It counts as cell-based. As to conditions: Acinetobacter baumannii; read-out: MIC A. baumannii 8C6 (GES-14). As for the experimental part:
as §1

The mark [8] stands for this setting: read-out: E. coli N43 MIC in molar.
[9] abbreviates: read-out: MIC E. coli N43 (CGSC# 5583).

Molecules are shown by their SMILES. Values after ≈ are worked out from the molar mass of the structure shown. Like-named read-outs stand apart in the source and are kept apart here.

Here are results for three compounds from article PMC8300687, “A Fine-Tuned Lipophilicity/Hydrophilicity Ratio Governs Antibacterial Potency and Selectivity of Bifurcated Halogen Bond-Forming NBTIs” (Antibiotics, 2021).

As a reminder, the Papp is the rate of passage across a membrane or cell layer, normalised by area and donor concentration. As a reminder, the IC50 is the concentration at which inhibition is half-maximal. One may read the thermodynamic solubility as the concentration in solution at equilibrium with solid.

T1 sequence (P0AES4 whole entry): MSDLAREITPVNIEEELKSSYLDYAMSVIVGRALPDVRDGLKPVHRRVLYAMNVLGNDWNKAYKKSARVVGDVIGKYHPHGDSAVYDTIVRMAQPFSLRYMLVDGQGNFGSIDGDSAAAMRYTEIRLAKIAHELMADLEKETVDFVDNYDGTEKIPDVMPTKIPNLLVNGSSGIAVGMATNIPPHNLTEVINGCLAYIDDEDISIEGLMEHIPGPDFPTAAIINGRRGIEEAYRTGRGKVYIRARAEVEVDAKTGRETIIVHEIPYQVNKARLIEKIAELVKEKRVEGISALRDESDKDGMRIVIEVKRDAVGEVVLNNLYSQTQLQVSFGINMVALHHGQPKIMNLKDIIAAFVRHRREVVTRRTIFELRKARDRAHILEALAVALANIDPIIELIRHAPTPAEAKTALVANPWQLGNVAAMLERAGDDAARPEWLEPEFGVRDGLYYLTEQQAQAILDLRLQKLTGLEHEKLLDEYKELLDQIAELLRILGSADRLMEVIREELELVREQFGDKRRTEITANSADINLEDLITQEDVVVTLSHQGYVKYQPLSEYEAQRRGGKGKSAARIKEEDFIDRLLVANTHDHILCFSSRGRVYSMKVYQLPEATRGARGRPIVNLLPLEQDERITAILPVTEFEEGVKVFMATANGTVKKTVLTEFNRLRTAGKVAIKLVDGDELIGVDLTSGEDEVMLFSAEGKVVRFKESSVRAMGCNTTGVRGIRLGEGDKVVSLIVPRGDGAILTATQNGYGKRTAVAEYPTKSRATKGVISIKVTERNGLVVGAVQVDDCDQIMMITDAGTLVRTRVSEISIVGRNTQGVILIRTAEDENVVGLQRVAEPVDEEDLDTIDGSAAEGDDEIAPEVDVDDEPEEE
T2 sequence (P20831 whole entry): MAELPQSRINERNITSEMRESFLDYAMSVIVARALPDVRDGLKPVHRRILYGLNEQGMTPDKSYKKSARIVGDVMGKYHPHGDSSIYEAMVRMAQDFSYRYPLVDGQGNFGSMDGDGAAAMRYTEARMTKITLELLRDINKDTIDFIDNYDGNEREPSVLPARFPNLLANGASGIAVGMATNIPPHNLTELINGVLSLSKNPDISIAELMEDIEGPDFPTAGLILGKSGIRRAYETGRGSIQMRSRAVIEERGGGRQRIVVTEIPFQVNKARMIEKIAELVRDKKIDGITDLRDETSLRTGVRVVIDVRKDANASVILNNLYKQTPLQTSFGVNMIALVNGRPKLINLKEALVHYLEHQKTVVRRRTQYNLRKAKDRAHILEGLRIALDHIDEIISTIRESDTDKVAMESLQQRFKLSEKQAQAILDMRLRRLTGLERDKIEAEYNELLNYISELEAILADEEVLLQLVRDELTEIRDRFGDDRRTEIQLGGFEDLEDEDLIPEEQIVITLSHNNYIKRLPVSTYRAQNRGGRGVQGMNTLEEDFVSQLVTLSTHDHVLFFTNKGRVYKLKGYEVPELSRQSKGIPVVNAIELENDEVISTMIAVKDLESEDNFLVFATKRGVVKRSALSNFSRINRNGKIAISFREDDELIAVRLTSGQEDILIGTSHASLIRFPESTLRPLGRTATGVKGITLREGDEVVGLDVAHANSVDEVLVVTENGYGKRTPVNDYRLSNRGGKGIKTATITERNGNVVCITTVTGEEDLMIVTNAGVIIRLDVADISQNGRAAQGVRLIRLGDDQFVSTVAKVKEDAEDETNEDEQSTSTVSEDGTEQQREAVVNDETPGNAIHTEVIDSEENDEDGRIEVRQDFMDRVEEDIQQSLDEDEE
T2 sequence (P0A0K8 whole entry partner): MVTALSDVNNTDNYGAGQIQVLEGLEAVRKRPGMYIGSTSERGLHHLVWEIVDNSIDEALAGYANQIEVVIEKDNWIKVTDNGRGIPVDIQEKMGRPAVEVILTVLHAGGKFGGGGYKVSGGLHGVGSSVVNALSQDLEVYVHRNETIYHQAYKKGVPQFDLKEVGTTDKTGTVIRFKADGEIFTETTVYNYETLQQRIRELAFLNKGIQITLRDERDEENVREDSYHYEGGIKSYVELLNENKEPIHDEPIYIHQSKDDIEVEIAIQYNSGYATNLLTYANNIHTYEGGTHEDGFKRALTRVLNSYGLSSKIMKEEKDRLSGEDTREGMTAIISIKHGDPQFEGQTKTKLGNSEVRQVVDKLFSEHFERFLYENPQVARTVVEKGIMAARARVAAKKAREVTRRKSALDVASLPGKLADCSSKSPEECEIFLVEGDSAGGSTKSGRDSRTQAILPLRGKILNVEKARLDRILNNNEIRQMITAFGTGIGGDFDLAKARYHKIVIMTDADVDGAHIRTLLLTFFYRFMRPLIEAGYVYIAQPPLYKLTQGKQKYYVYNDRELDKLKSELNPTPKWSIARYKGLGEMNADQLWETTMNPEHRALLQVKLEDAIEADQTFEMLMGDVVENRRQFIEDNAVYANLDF

`COc1ccc2nccc(CCN3CCC(NCc4ccccc4)CC3)c2n1` [Compound 11]: the MIC in the data set on M. avium is more than 128 µg/mL; in the data set with E. coli D22, 16 µg/mL (≈ 42.5 µM); with MRSA (QA-11.6), 8 µg/mL (≈ 21.2 µM); in the data set on E. coli (QA-11.3), 32 µg/mL (≈ 85 µM); against S. pneumoniae (QA-10/02) it was 2 µg/mL (≈ 5.31 µM); in data set [1], 16 µg/mL (≈ 42.5 µM). The MIC is 8 µg/mL (≈ 21.2 µM) in the data set with M. smegmatis; 8 µg/mL (≈ 21.2 µM) in the data set with MRSA (QA-11.7); 32 µg/mL (≈ 85 µM) in [2]; more than 128 µg/mL in data set [3]; 8 µg/mL (≈ 21.2 µM) with MRSA; 16 µg/mL (≈ 42.5 µM) in data set [4]. Also, the MIC is 21.2 µM in the data set on E. coli N43 (CGSC# 5583) (setting [8]), 8 µg/mL with E. coli N43 (CGSC# 5583) (setting [9]), more than 128 µg/mL in data set [6] and 64 µg/mL (≈ 170 µM) in data set [7]. For the same compound, the values for the Papp at 4 h in “in vitro” and in the data set “in vitro” (pH 7.4) were more than 2.7 ×10⁻⁶ cm/s and 10.9 ×10⁻⁶ cm/s, respectively. For the same compound, the IC50 at E. coli DNA gyrase was 40.6 ± 1.97 µM. The “LE DNA Gyrase E. coli” value on E. coli DNA gyrase was 0.21. For the same compound, the “LE DNA Gyrase S. aureus” value on S. aureus DNA gyrase is recorded as 0.29. The solubility (thermodynamic) at 24 h in data set [5] amounted to 1370 µg/mL (≈ 3640 µM).

For `COc1ccc2nccc(CCN3CCC(NCc4ccc(F)cc4)CC3)c2n1` [Compound 12], the MIC was 32 µg/mL (≈ 81.1 µM) in the data set on M. avium; 16 µg/mL (≈ 40.6 µM) with E. coli D22; 4 µg/mL (≈ 10.1 µM) in the data set on MRSA (QA-11.6); 8 µg/mL (≈ 20.3 µM) in the data set with E. coli (QA-11.3); 2 µg/mL (≈ 5.07 µM) in the data set on S. pneumoniae (QA-10/02); 8 µg/mL (≈ 20.3 µM) in [1]. Further, the MIC was 2 µg/mL (≈ 5.07 µM) in the data set on M. smegmatis; 4 µg/mL (≈ 10.1 µM) in the data set with MRSA (QA-11.7); 1 µg/mL (≈ 2.53 µM) in data set [2]; more than 128 µg/mL in data set [3]; 2 µg/mL (≈ 5.07 µM) in the data set with MRSA; 8 µg/mL (≈ 20.3 µM) in data set [4]. The MIC in the data set with E. coli N43 (CGSC# 5583) (setting [8]) was 10.1 µM; in the data set with E. coli N43 (CGSC# 5583) (setting [9]), 4 µg/mL; in data set [6], 128 µg/mL (≈ 324 µM); in data set [7] it was 32 µg/mL (≈ 81.1 µM). Also, the Papp at 4 h is more than 2.7 ×10⁻⁶ cm/s in the data set “in vitro” and 12.1 ×10⁻⁶ cm/s in “in vitro” (pH 7.4). The IC50 at E. coli DNA gyrase turned out to be 17 ± 1.69 µM. Besides, the “LE DNA Gyrase E. coli” value at E. coli DNA gyrase is reported as 0.23. Besides, at S. aureus DNA gyrase, the “LE DNA Gyrase S. aureus” value is given as 0.30. Further, the solubility (thermodynamic) at 24 h in [5] stood at 460 µg/mL (≈ 1170 µM).

`COc1ccc2nccc(CCN3CCC(NCc4ccc(CO)cc4)CC3)c2n1` [Compound 16]: the MIC was more than 128 µg/mL in the data set on M. avium; 16 µg/mL (≈ 39.4 µM) in the data set on E. coli D22; 4 µg/mL (≈ 9.84 µM) in the data set on MRSA (QA-11.6); 32 µg/mL (≈ 78.7 µM) in the data set with E. coli (QA-11.3); 2 µg/mL (≈ 4.92 µM) in the data set on S. pneumoniae (QA-10/02); 8 µg/mL (≈ 19.7 µM) in [1]. Further, the MIC was 32 µg/mL (≈ 78.7 µM) with M. smegmatis; 4 µg/mL (≈ 9.84 µM) in the data set with MRSA (QA-11.7); 32 µg/mL (≈ 78.7 µM) in [2]; more than 128 µg/mL in [3]; 4 µg/mL (≈ 9.84 µM) in the data set on MRSA; 8 µg/mL (≈ 19.7 µM) in [4]. For the same compound, the MIC was 39.4 µM in the data set on E. coli N43 (CGSC# 5583) (setting [8]), 16 µg/mL with E. coli N43 (CGSC# 5583) (setting [9]), more than 128 µg/mL in [6] and 128 µg/mL (≈ 315 µM) in data set [7]. The compound also yielded a Papp at 4 h in “in vitro” (pH 7.4) of 1.5 ×10⁻⁶ cm/s. Further, the “PAMPA permeability classification [low/high]” value in “in vitro” (relative to reference drugs) is on record as “int erm ediat e”. Also, the IC50 against E. coli DNA gyrase was found to be 56.6 ± 3.32 µM; against S. aureus DNA gyrase (fluorescence plate supercoiling assay, mean of two to four measurements), 4.39 ± 0.55 µM. Moreover, on E. coli DNA gyrase, the “LE DNA Gyrase E. coli” value came to 0.19. Also, at S. aureus DNA gyrase, the “LE DNA Gyrase S. aureus” value stood at 0.24. In data set [5] (pH 6.8, single-dose in 500 mL), the “solubility at pH 6.8 in words” value is “soluble at this pH in any conceivable single-dose”. This compound showed a thermodynamic solubility at 24 h in [5] of 3390 µg/mL (≈ 8330 µM).
